Assay results: patent EP0726263A2, “Herbicidal (1,3,4)oxadiazoles and thiadiazoles” (American Cyanamid Company, priority 1995, dated 1996)

Experiments:
Assay type in all cases: in vivo
Zea mays [1] = assay: Herbicidal activity, postemergence test; settings: post; sprayed onto seedling plants, 800 g of active material per hectare; evaluated 2 weeks after treatment
How it was run: (§1)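 Spray dose 800 g a.i./ha in 900 L/ha; acetone stock with 0.4% Triton X-155, water-diluted. Pre: sown loam soil, read at 3 wk. Post: seedling plants, read at 2 wk. Visual 0-9 rating vs untreated.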

Abutilon theophrasti [2] = assay: Herbicidal activity, postemergence test; settings: post; sprayed onto seedling plants, 800 g of active material per hectare; evaluated 2 weeks after treatment
How it was run: as §1

Amaranthus retroflexus [3] = assay: Herbicidal activity, postemergence test; settings: post; sprayed onto seedling plants, 800 g of active material per hectare; evaluated 2 weeks after treatment
How it was run: as §1

Gossypium hirsutum [4] = assay: Herbicidal activity, postemergence test; settings: post; sprayed onto seedling plants, 800 g of active material per hectare; evaluated 2 weeks after treatment
How it was run: as §1

Stellaria media [5] = assay: Herbicidal activity, postemergence test; settings: post; sprayed onto seedling plants, 800 g of active material per hectare; evaluated 2 weeks after treatment
How it was run: as §1

Alopecurus myosuroides [6] = assay: Herbicidal activity, postemergence test; settings: post; sprayed onto seedling plants, 800 g of active material per hectare; evaluated 2 weeks after treatment
How it was run: as §1

Galium aparine [7] = assay: Herbicidal activity, postemergence test; settings: post; sprayed onto seedling plants, 800 g of active material per hectare; evaluated 2 weeks after treatment
How it was run: as §1

Ipomoea hederacea [8] = assay: Herbicidal activity, postemergence test; settings: post; sprayed onto seedling plants, 800 g of active material per hectare; evaluated 2 weeks after treatment
How it was run: as §1

Setaria viridis [9] = assay: Herbicidal activity, postemergence test; settings: post; sprayed onto seedling plants, 800 g of active material per hectare; evaluated 2 weeks after treatment
How it was run: as §1

Ambrosia artemisifolia [10] = assay: Herbicidal activity, postemergence test; settings: post; sprayed onto seedling plants, 800 g of active material per hectare; evaluated 2 weeks after treatment
How it was run: as §1

Glycine max [11] = assay: Herbicidal activity, postemergence test; settings: post; sprayed onto seedling plants, 800 g of active material per hectare; evaluated 2 weeks after treatment
How it was run: as §1

Hordeum vulgare [12] = assay: Herbicidal activity, postemergence test; settings: post; sprayed onto seedling plants, 800 g of active material per hectare; evaluated 2 weeks after treatment
How it was run: as §1

Triticum aestivum [13] = assay: Herbicidal activity, postemergence test; settings: post; sprayed onto seedling plants, 800 g of active material per hectare; evaluated 2 weeks after treatment
How it was run: as §1

Veronica persica [14] = assay: Herbicidal activity, postemergence test; settings: post; sprayed onto seedling plants, 800 g of active material per hectare; evaluated 2 weeks after treatment
How it was run: as §1

Matricaria inodora [15] = assay: Herbicidal activity, postemergence test; settings: post; sprayed onto seedling plants, 800 g of active material per hectare; evaluated 2 weeks after treatment
How it was run: as §1

Papaver rhoeas [16] = assay: Herbicidal activity, postemergence test; settings: post; sprayed onto seedling plants, 800 g of active material per hectare; evaluated 2 weeks after treatment
How it was run: as §1

Lamium purpureum [17] = assay: Herbicidal activity, postemergence test; settings: post; sprayed onto seedling plants, 800 g of active material per hectare; evaluated 2 weeks after treatment
How it was run: as §1

Chenopodium album [18] = assay: Herbicidal activity, postemergence test; settings: post; sprayed onto seedling plants, 800 g of active material per hectare; evaluated 2 weeks after treatment
How it was run: as §1

Zea mays [19] = assay: Herbicidal activity, preemergence test; settings: pre; sprayed onto soil, 800 g of active material per hectare; evaluated 3 weeks after treatment
How it was run: as §1

Abutilon theophrasti [20] = assay: Herbicidal activity, preemergence test; settings: pre; sprayed onto soil, 800 g of active material per hectare; evaluated 3 weeks after treatment
How it was run: as §1

Amaranthus retroflexus [21] = assay: Herbicidal activity, preemergence test; settings: pre; sprayed onto soil, 800 g of active material per hectare; evaluated 3 weeks after treatment
How it was run: as §1

Gossypium hirsutum [22] = assay: Herbicidal activity, preemergence test; settings: pre; sprayed onto soil, 800 g of active material per hectare; evaluated 3 weeks after treatment
How it was run: as §1

Stellaria media [23] = assay: Herbicidal activity, preemergence test; settings: pre; sprayed onto soil, 800 g of active material per hectare; evaluated 3 weeks after treatment
How it was run: as §1

Alopecurus myosuroides [24] = assay: Herbicidal activity, preemergence test; settings: pre; sprayed onto soil, 800 g of active material per hectare; evaluated 3 weeks after treatment
How it was run: as §1

Galium aparine [25] = assay: Herbicidal activity, preemergence test; settings: pre; sprayed onto soil, 800 g of active material per hectare; evaluated 3 weeks after treatment
How it was run: as §1

Ipomoea hederacea [26] = assay: Herbicidal activity, preemergence test; settings: pre; sprayed onto soil, 800 g of active material per hectare; evaluated 3 weeks after treatment
How it was run: as §1

Setaria viridis [27] = assay: Herbicidal activity, preemergence test; settings: pre; sprayed onto soil, 800 g of active material per hectare; evaluated 3 weeks after treatment
How it was run: as §1

Ambrosia artemisifolia [28] = assay: Herbicidal activity, preemergence test; settings: pre; sprayed onto soil, 800 g of active material per hectare; evaluated 3 weeks after treatment
How it was run: as §1

Glycine max [29] = assay: Herbicidal activity, preemergence test; settings: pre; sprayed onto soil, 800 g of active material per hectare; evaluated 3 weeks after treatment
How it was run: as §1

Hordeum vulgare [30] = assay: Herbicidal activity, preemergence test; settings: pre; sprayed onto soil, 800 g of active material per hectare; evaluated 3 weeks after treatment
How it was run: as §1

Triticum aestivum [31] = assay: Herbicidal activity, preemergence test; settings: pre; sprayed onto soil, 800 g of active material per hectare; evaluated 3 weeks after treatment
How it was run: as §1

Veronica persica [32] = assay: Herbicidal activity, preemergence test; settings: pre; sprayed onto soil, 800 g of active material per hectare; evaluated 3 weeks after treatment
How it was run: as §1

Matricaria inodora [33] = assay: Herbicidal activity, preemergence test; settings: pre; sprayed onto soil, 800 g of active material per hectare; evaluated 3 weeks after treatment
How it was run: as §1

Papaver rhoeas [34] = assay: Herbicidal activity, preemergence test; settings: pre; sprayed onto soil, 800 g of active material per hectare; evaluated 3 weeks after treatment
How it was run: as §1

Lamium purpureum [35] = assay: Herbicidal activity, preemergence test; settings: pre; sprayed onto soil, 800 g of active material per hectare; evaluated 3 weeks after treatment
How it was run: as §1

Chenopodium album [36] = assay: Herbicidal activity, preemergence test; settings: pre; sprayed onto soil, 800 g of active material per hectare; evaluated 3 weeks after treatment
How it was run: as §1

| Compound | ZEAMX control rating (0-9) (Zea mays [1]) | ABUTH control rating (0-9) (Abutilon theophrasti [2]) | AMARE control rating (0-9) (Amaranthus retroflexus [3]) | GOSHI control rating (0-9) (Gossypium hirsutum [4]) | STEME control rating (0-9) (Stellaria media [5]) | ALOMY control rating (0-9) (Alopecurus myosuroides [6]) | GALAP control rating (0-9) (Galium aparine [7]) | IPOHE control rating (0-9) (Ipomoea hederacea [8]) | SETVI control rating (0-9) (Setaria viridis [9]) | AMBEL control rating (0-9) (Ambrosia artemisifolia [10]) | GLXMA control rating (0-9) (Glycine max [11]) | HORVW control rating (0-9) (Hordeum vulgare [12]) | TRZAW control rating (0-9) (Triticum aestivum [13]) | VERPE control rating (0-9) (Veronica persica [14]) | MATIN control rating (0-9) (Matricaria inodora [15]) | PAPRH control rating (0-9) (Papaver rhoeas [16]) | LAMPU control rating (0-9) (Lamium purpureum [17]) | CHEAL control rating (0-9) (Chenopodium album [18]) | ZEAMX control rating (0-9) (Zea mays [19]) | ABUTH control rating (0-9) (Abutilon theophrasti [20]) | further results |
| --- | --- | --- | --- | --- | --- | --- | --- | --- | --- | --- | --- | --- | --- | --- | --- | --- | --- | --- | --- | --- | --- |
| C[C@H](NC(=O)c1nnc(-c2c(F)cccc2F)o1)c1ccccc1 [Example 24] | 2 (slight effect) | 9 (complete kill) | 9 (complete kill) | 8 (approaching complete kill) | 8 (approaching complete kill) | 2 (slight effect) | 5 (definite injury) | 5 (definite injury) | 6 (herbicidal effect) | 8 (approaching complete kill) | 4 (injury) | 2 (slight effect) | 3 (moderate effect) | 9 (complete kill) | 4 (injury) | 6 (herbicidal effect) | 8 (approaching complete kill) | 9 (complete kill) | 0 (no effect) | 7 (good herbicidal effect) | AMARE control rating (0-9) (Amaranthus retroflexus [21]): 9 (complete kill); GOSHI control rating (0-9) (Gossypium hirsutum [22]): 0 (no effect); STEME control rating (0-9) (Stellaria media [23]): 8 (approaching complete kill); ALOMY control rating (0-9) (Alopecurus myosuroides [24]): 2 (slight effect); GALAP control rating (0-9) (Galium aparine [25]): 0 (no effect); IPOHE control rating (0-9) (Ipomoea hederacea [26]): 2 (slight effect); SETVI control rating (0-9) (Setaria viridis [27]): 8 (approaching complete kill); AMBEL control rating (0-9) (Ambrosia artemisifolia [28]): 3 (moderate effect); GLXMA control rating (0-9) (Glycine max [29]): 0 (no effect); HORVW control rating (0-9) (Hordeum vulgare [30]): 0 (no effect); TRZAW control rating (0-9) (Triticum aestivum [31]): 0 (no effect); VERPE control rating (0-9) (Veronica persica [32]): 9 (complete kill); MATIN control rating (0-9) (Matricaria inodora [33]): 9 (complete kill); PAPRH control rating (0-9) (Papaver rhoeas [34]): 9 (complete kill); LAMPU control rating (0-9) (Lamium purpureum [35]): 7 (good herbicidal effect); CHEAL control rating (0-9) (Chenopodium album [36]): 8 (approaching complete kill) |
| C[C@H](NC(=O)c1nnc(-c2c(Cl)cccc2Cl)o1)c1ccccc1 [Example 25] | 0 (no effect) | 1 (trace effect) | 5 (definite injury) | 0 (no effect) | 0 (no effect) | 0 (no effect) | 0 (no effect) | 1 (trace effect) | 0 (no effect) | 0 (no effect) | 1 (trace effect) | 0 (no effect) | 0 (no effect) | 0 (no effect) | 0 (no effect) | 2 (slight effect) | 1 (trace effect) | 5 (definite injury) | 0 (no effect) | 0 (no effect) | AMARE control rating (0-9) (Amaranthus retroflexus [21]): 3 (moderate effect); GOSHI control rating (0-9) (Gossypium hirsutum [22]): 0 (no effect); STEME control rating (0-9) (Stellaria media [23]): 0 (no effect); ALOMY control rating (0-9) (Alopecurus myosuroides [24]): 0 (no effect); GALAP control rating (0-9) (Galium aparine [25]): 0 (no effect); IPOHE control rating (0-9) (Ipomoea hederacea [26]): 0 (no effect); SETVI control rating (0-9) (Setaria viridis [27]): 0 (no effect); AMBEL control rating (0-9) (Ambrosia artemisifolia [28]): 0 (no effect); GLXMA control rating (0-9) (Glycine max [29]): 0 (no effect); HORVW control rating (0-9) (Hordeum vulgare [30]): 0 (no effect); TRZAW control rating (0-9) (Triticum aestivum [31]): 0 (no effect); VERPE control rating (0-9) (Veronica persica [32]): 0 (no effect); MATIN control rating (0-9) (Matricaria inodora [33]): 0 (no effect); PAPRH control rating (0-9) (Papaver rhoeas [34]): 3 (moderate effect); LAMPU control rating (0-9) (Lamium purpureum [35]): 0 (no effect); CHEAL control rating (0-9) (Chenopodium album [36]): 0 (no effect) |
